Assay results from PMC4109680, “Identification and Preclinical Pharmacology of the γ-Secretase Modulator BMS-869780” (International Journal of Alzheimer's Disease, 2014).

Columns and labels:
Aβ1-42 (H4-APPsw) = experiment: Aβ1-42 time-resolved fluorescence immunoassay in H4-APPsw cell cultures; type: cell-based, human; conditions: H4-APPsw cultures treated overnight
Experimental: H4-APPsw cell cultures were maintained on Dulbecco's modified Eagle's medium (DMEM) supplemented with L-glutamine (2 mM), fetal bovine serum (10%), and G418 (100 μg/mL). […] Aβ1-42 and Aβ1-40 assays, and Notch inhibition assays, were carried out as described previously. Mouse embryonic fibroblasts deficient in PS1 and PS2 (MEF dKO) were passaged twice per week in DMEM/F-12 medium, consisting of a 1 : 1 mixture of DMEM and F-12 nutrient mixture supplemented with 10% fetal bovine serum, penicillin, and streptomycin. For expression of human presenilin-1 in MEF dKO cells, the full length human presenilin-1 cDNA open reading frame was cloned between the BamHI and XhoI sites of the vector pcDNA5/FRT (Invitrogen), placing presenilin-1 expression under the control of the CMV promoter. The M146V mutated allele was introduced into the presenilin-1 expression construct by polymerase chain reaction using the oligonucleotide primers 5′-[…]-3′ and 5′-[…]-3 (QuikChange kit, Invitrogen). MEF dKO cultures were cotransfected with DNA constructs expressing APP-CTF, encoding the C-terminal 99 amino acids of APP [61] and either the human presenilin-1 or presenilin-1 M146V allele. Transfected cultures were incubated overnight at 37°C in 5% CO2 atmosphere and then harvested, resuspended in DMEM/F-12 medium, dispensed into 96-well culture plates, and incubated for 6 hours at 37°C in 5% CO2 atmosphere. Culture medium was then replaced with Ultraculture serum free medium (Lonza, Rockland, ME) with or without compounds at a range of concentrations and incubated overnight.
IC50 determinations for Aβ1-42 and Aβ1-40 in H4-APPsw cultures in 384-well format were determined using homogeneous time-resolved fluorescence immunoassays as previously described. The principle of these assays is illustrated in Figures 1(c) and 1(d). In other experiments using H4-APPsw cultures, Aβ was quantified by ELISA; for Aβ1-42 the combination of monoclonal antibodies was 26D6 and 565-HRP; for Aβ1-40 it was TSD and 26D6-HRP, and for Aβ1-x it was 4G8 and 26D6-HRP. In some experiments a novel 4-plex Aβ electrochemiluminescence immunoassay was used (Mesoscale Discovery catalog number N45ZA-1). Briefly, the 4-plex was carried out in 96-well format, with 4 separate spots of capture antibodies in each well. […] For Aβ in transiently transfected PS1/PS2 dKO fibroblasts, Aβ1-42 was quantified using an ELISA kit (WACO), and Aβ1-40 was quantified by ELISA as described above for H4-APPsw cultures. […] For the rat and mouse experiments illustrated in Figures 7 and 8, brain samples were prepared by solid phase extraction, and endogenous rat brain Aβ1-42 and Aβ1-40 were quantified by ELISA as previously described for wild type mice. […]

mNotch1ΔE = experiment: Notch signaling CBF1-luciferase reporter assay in HeLa cells transfected with mNotch1ΔE; type: cell-based; conditions: for IC50: HeLa, treated overnight; for mNotch1ΔE/Aβ1-42: ratio of IC50 values
Experimental: Inhibition of Notch signaling in cultured cells using a mouse-derived truncated Notch1 transgene, mNotch-ΔE [67], has been described in detail previously. Western blots for mNotchΔ1865 and NICD using 9E10 anti-c-myc monoclonal were carried out as previously described.
The effect of BMS-869780 on Notch processing was evaluated using transcriptional reporter assays and western blotting of NICD levels. HeLa cell cultures were transfected with mNotch1ΔE and CBF1-luciferase reporter constructs and treated with BMS-869780. In most replicates of this experiment, inhibition of luciferase reporter occurred with IC50 > 10 μM. […] To further evaluate the effect of BMS-869780 on Notch processing, western blots of cell cultures were carried out using mNotch1Δ1865, a truncated version of mNotch1ΔE that facilitates separation of NICD product from mNotch1 substrate on western blots. HeLa cell cultures were transfected with mNotch1Δ1865 and treated overnight with compounds before western blotting. […] Furthermore, the GSIs caused an increased level of mNotch1Δ1865 substrate, most likely due to inhibition of its turnover by γ-secretase, as previously noted by Blat et al..
(b) HeLa cell cultures were transfected with mNotchΔ1865, treated with compounds overnight, and cell extracts were evaluated by western blot using anti-c-myc-HRP conjugate. Lanes 1 and 9: DMSO (0.1%) vehicle. Lane 2: BMS-299897 at 1 μM. Lane 3: BMS-433796 at 0.3 μM. Lanes 4–8: BMS-869780 at 0.1, 0.3, 1, 3, and 10 μM, respectively.

Aβ1-42 (MEF M146V) = experiment: Aβ1-42 ELISA in MEF dKO cultures cotransfected with APP-CTF and human presenilin-1 M146V allele; type: cell-based
Experimental: H4-APPsw cell cultures were maintained on Dulbecco's modified Eagle's medium (DMEM) supplemented with L-glutamine (2 mM), fetal bovine serum (10%), and G418 (100 μg/mL). […] Aβ1-42 and Aβ1-40 assays, and Notch inhibition assays, were carried out as described previously. Mouse embryonic fibroblasts deficient in PS1 and PS2 (MEF dKO) were passaged twice per week in DMEM/F-12 medium, consisting of a 1 : 1 mixture of DMEM and F-12 nutrient mixture supplemented with 10% fetal bovine serum, penicillin, and streptomycin. For expression of human presenilin-1 in MEF dKO cells, the full length human presenilin-1 cDNA open reading frame was cloned between the BamHI and XhoI sites of the vector pcDNA5/FRT (Invitrogen), placing presenilin-1 expression under the control of the CMV promoter. […]
IC50 determinations for Aβ1-42 and Aβ1-40 in H4-APPsw cultures in 384-well format were determined using homogeneous time-resolved fluorescence immunoassays as previously described. […] In other experiments using H4-APPsw cultures, Aβ was quantified by ELISA; for Aβ1-42 the combination of monoclonal antibodies was 26D6 and 565-HRP; for Aβ1-40 it was TSD and 26D6-HRP, and for Aβ1-x it was 4G8 and 26D6-HRP. […] For Aβ in transiently transfected PS1/PS2 dKO fibroblasts, Aβ1-42 was quantified using an ELISA kit (WACO), and Aβ1-40 was quantified by ELISA as described above for H4-APPsw cultures. […]

Structure (SMILES)	IC50 (Aβ1-42 (H4-APPsw); Homo sapiens) [nM]	Notch/Aβ1-42 IC50 ratios (mNotch1ΔE; GSIs)	IC50 (mNotch1ΔE) [nM]	mNotch1ΔE/Aβ1-42 (mNotch1ΔE) [x]	IC50 (Aβ1-42 (H4-APPsw)) [nM]	IC50 (Aβ1-42 (MEF M146V); Homo sapiens, presenilin-1 M146V allele) [nM]	Aβ1-42 IC50 in M146V allele relative to wild type presenilin (Aβ1-42 (MEF M146V); MEF cultures, higher IC50 (less potent) with M146V)	ratio of Notch to Aβ1-42 IC50s (mNotch1ΔE; based on IC50 >10 μM for Notch) [fold]
C[C@H](c1ccc(F)cc1CCCC(=O)O)N(c1cc(F)ccc1F)S(=O)(=O)c1ccc(Cl)cc1 [BMS-299897, reference compound]	0.47	723	340	723				
COc1cc(Nc2nc3n(n2)CCCC[C@H]3c2ccc(F)cc2)ccc1-n1cnc(Cl)c1 [BMS-869780]	5.6		> 10000	>1785	5.1	22	ca. 3 fold	> 1785
